Counter-ions that a name gives are not always drawn.
Columns and labels:
Type in all cases: cell-based, mouse
C2C12 cells = experiment: Muscle fiber diameter of differentiated C2C12 muscle cells (microscope); settings: 100 μM compound, about 24 hours, vs DMSO negative control
Procedure: (§1) In detail, C2C12 cell line (mouse gastrocnemius muscle, ATCC® CRL-1772™) was seeded in a 10% FBS/DMEM culture medium. When the cells reached about 70% confluence in 5% CO2 incubator at 37° C., the culture medium was replaced by 2% FBS/DMEM, and further cultured for about 4 days to induce complete differentiation into muscle cells. The C2C12 cell line is a mouse myoblast cell line obtained through continuous culture of myoblasts cultured from the gastrocnemius muscle of C3H mice.
Muscle fiber-protecting effects of the compounds selected in 1. were examined by measuring the diameter of muscle fiber according to addition of the selected compounds.
As described in Example 1.1, C2C12 cells were completely differentiated to muscle cells. After removal of the medium, 4 ml of a fresh medium containing each 100 μM of isotretinoin (Roche), vismodegib (Genentech), or lincomycin hydrochloride (Sima-Aldrich) was added, and the cells were cultured in a 5% CO2 incubator at 37° C. for about 24 hours. As a negative control, muscle cells treated with DMSO (Sima-Aldrich), instead of the selected compounds, were used. As a positive control, muscle cells treated with forskolin were used.
Thereafter, the cultured cells were washed with PBS. Muscle fibers of the cells were photographed with a microscope (×200), and diameter (μm) of the muscle fiber was measured.

myostatin = experiment: Real time PCR of myostatin mRNA in differentiated C2C12 muscle cells; settings: 10 μM compound in 0.1% DMSO, about 24 hours, normalized to GAPDH, vs DMSO negative control
Procedure: as §1
(§2) When the C2C12 cells were completely differentiated, the medium was removed, and 10 μM (in 0.1% DMSO) of active compound for screening was added to the cultured muscle cells, followed by incubation under conditions of 37° C. and 5% CO2 for about 24 hours. As the active compound for screening, a library of a total of 700 compounds (Selleck Chemicals) was used. Thereafter, the cultured muscle cells were washed with PBS to obtain muscle cells. As a negative control, muscle cells treated with DMSO (Sima-Aldrich), instead of the active compound for screening, were used. As a positive control, muscle cells treated with forskolin were used.
(§3) Total RNA was separated according to the manufacturer's protocol by adding a Trizol reagent (Invitrogen) to the obtained cells. cDNA was synthesized from the separated total RNA using reverse transcriptase. The mRNA levels of PGC-1 alpha 4 isoform and myostatin were quantified using a real time PCR (MyiQPCR instrument, BioRad), which is a device for measuring SYBR Green. The resulting amounts were then normalized to the amount of GAPDH mRNA.
(§4) After normalization of the values obtained from the amplification to GAPDH gene, relative mRNA expression levels of PGC-1 alpha 4 isoform and myostatin were quantified. The relative mRNA expression levels (Arbitrary Unit; AU) of PGC-1 alpha 4 isoform and myostatin thus quantified are shown in FIGS. 2A and 2B, respectively (*: p<0.05 vs. negative control).

PGC-1 alpha 4 isoform = experiment: Real time PCR of PGC-1 alpha 4 isoform mRNA in differentiated C2C12 muscle cells; settings: 10 μM compound in 0.1% DMSO, about 24 hours, normalized to GAPDH, vs DMSO negative control
Procedure: as §1, §2, §3, §4

## CC1=C(/C=C/C(C)=C/C=C/C(C)=C\C(=O)O)C(C)(C)CCC1 [isotretinoin, (2Z,4E,6E,8E)-3,7-dimethyl-9-(2,6,6-trimethylcyclohex-1-en-1-yl)nona-2,4,6,8-tetraenoic acid]
C2C12 cells
  muscle fiber diameter compared to the negative control: increased
myostatin
  level (relative mRNA expression) of myostatin compared to the negative control: decreasing
PGC-1 alpha 4 isoform
  level (relative mRNA expression) of PGC-1 alpha 4 isoform compared to the negative control: increasing

## CCC[C@@H]1C[C@@H](C(=O)N[C@@H]([C@H]2O[C@H](SC)[C@H](O)[C@@H](O)[C@H]2O)[C@@H](C)O)N(C)C1 [lincomycin hydrochloride, (2S,4R)-N-[(1R,2R)-2-hydroxy-1-[(2R,3R,4S,5R,6R)-3,4,5-trihydroxy-6-(methylsulfanyl)oxan-2-yl]propyl]-1-methyl-4-propylpyrrolidine-2-carboxamide]
C2C12 cells
  muscle fiber diameter compared to the negative control: increased
myostatin
  level (relative mRNA expression) of myostatin compared to the negative control: decreasing
PGC-1 alpha 4 isoform
  level (relative mRNA expression) of PGC-1 alpha 4 isoform compared to the negative control: increasing

## CS(=O)(=O)c1ccc(C(=O)Nc2ccc(Cl)c(-c3ccccn3)c2)c(Cl)c1 [vismodegib, 2-chloro-N-(4-chloro-3-pyridin-2-ylphenyl)-4-methylsulfonylbenzamide]
C2C12 cells
  muscle fiber diameter compared to the negative control: increased
myostatin
  level (relative mRNA expression) of myostatin compared to the negative control: decreasing
PGC-1 alpha 4 isoform
  level (relative mRNA expression) of PGC-1 alpha 4 isoform compared to the negative control: increasing

From US9687498B1, “Composition for preventing or treating muscle wasting-related disease and use thereof” (Samsung Electronics Co., Ltd., priority 2015, dated 2017)
